Assay: Inhibition of binding of [125I]-CCK-8 to the cholecystokinin type B receptor

Question: Which IC50 does the source give for `CCNC(=O)CN1C(=O)C(NC(=O)Nc2ccc(Cl)cc2)N=C(c2ccccc2)c2ccccc21` (configuration not stated) [2-{3-[3-(4-Chloro-phenyl)-ureido]-2-oxo-5-phenyl-2,3-dihydro-benzo[e][1,4]diazepin-1-yl}-N-ethyl-acetamide] here?
Answer: 11 nM

Question: Which IC50 does the source give for `CN1C(=O)C(NC(=O)Nc2cccc(C(=O)O)c2)N=C(c2ccccc2)c2ccccc21` (configuration not stated) [3-[3-(1-Methyl-2-oxo-5-phenyl-2,3-dihydro-1H-benzo[e][1,4]diazepin-3-yl)-ureido]-benzoic acid] here?
Answer: 9.7 nM

Question: Which IC50 does the source give for `COC(=O)c1cccc(NC(=O)N[C@@H]2N=C(c3ccccc3)c3ccccc3N(C)C2=O)c1` [3-[3-((R)-1-Methyl-2-oxo-5-phenyl-2,3-dihydro-1H-benzo[e][1,4]diazepin-3-yl)-ureido]-benzoic acid methyl ester] here?
Answer: 8 nM

Question: With `CCOC(=O)CCN1C(=O)C(NC(=O)Nc2cccc(OC)c2)N=C(c2ccccc2)c2ccccc21` (configuration not stated) [3-{3-[3-(3-Methoxy-phenyl)-ureido]-2-oxo-5-phenyl-2,3-dihydro-benzo[e][1,4]diazepin-1-yl}-propionic acid ethyl ester] as the compound, how does the IC50 read?
Answer: 1 nM

Question: With `COc1cccc(NC(=O)NC2N=C(c3ccccc3)c3ccccc3N(CCC(=O)O)C2=O)c1` (configuration not stated) [3-{3-[3-(3-Methoxy-phenyl)-ureido]-2-oxo-5-phenyl-2,3-dihydro-benzo[e][1,4]diazepin-1-yl}-propionic acid] as the compound, how does the IC50 read?
Answer: 250 nM

Question: With `CCOC(=O)CCN1C(=O)C(NC(=O)Nc2ccc(Cl)cc2)N=C(c2ccccc2)c2ccccc21` (configuration not stated) [3-{3-[3-(4-Chloro-phenyl)-ureido]-2-oxo-5-phenyl-2,3-dihydro-benzo[e][1,4]diazepin-1-yl}-propionic acid ethyl ester] as the compound, how does the IC50 read?
Answer: 5.9 nM

Question: With `CN1C(=O)C(NC(=O)Nc2ccc(C(=O)O)cc2)N=C(c2ccccc2)c2ccccc21` (configuration not stated) [4-[3-(1-Methyl-2-oxo-5-phenyl-2,3-dihydro-1H-benzo[e][1,4]diazepin-3-yl)-ureido]-benzoic acid] as the compound, how does the IC50 read?
Answer: > 100 nM

Question: With `CN1C(=O)C(NC(N)=O)N=C(c2ccccc2)c2ccccc21` (configuration not stated) [(1-Methyl-2-oxo-5-phenyl-2,3-dihydro-1H-benzo[e][1,4]diazepin-3-yl)-urea] as the compound, how does the IC50 read?
Answer: > 100000 nM

Question: Which IC50 does the source give for `COc1cccc(NC(=O)NC2N=C(c3ccccc3)c3ccccc3N(CC[N+](C)(C)C)C2=O)c1` (configuration not stated) [(2-{3-[3-(3-Methoxy-phenyl)-ureido]-2-oxo-5-phenyl-2,3-dihydro-benzo[e][1,4]diazepin-1-yl}-ethyl)-trimethyl-ammonium; iodide] here?
Answer: 1100 nM

Question: With `CN1C(=O)C(NC(=O)Nc2ccc(Cl)cc2)N=C(c2ccccc2)c2ccccc21` [(R)-1-(4-Chloro-phenyl)-3-(1-methyl-2-oxo-5-phenyl-2,3-dihydro-1H-benzo[e][1,4]diazepin-3-yl)-urea] as the compound, how does the IC50 read?
Answer: 81 nM

Question: With `CCN(CC)CC(=O)OCCN1C(=O)C(NC(=O)Nc2cccc(C)c2)N=C(c2ccccc2)c2ccccc21` (configuration not stated) [Diethylamino-acetic acid 2-[2-oxo-5-phenyl-3-(3-m-tolyl-ureido)-2,3-dihydro-benzo[e][1,4]diazepin-1-yl]-ethyl ester] as the compound, how does the IC50 read?
Answer: 5.6 nM

Question: For `CCN(CC)C(=O)CN1C(=O)C(NC(=O)Nc2cccc(OC)c2)N=C(c2ccccc2)c2ccccc21` (configuration not stated) [N,N-Diethyl-2-{3-[3-(3-methoxy-phenyl)-ureido]-2-oxo-5-phenyl-2,3-dihydro-benzo[e][1,4]diazepin-1-yl}-acetamide], which IC50 is on record?
Answer: 0.22 nM

Question: For `O=C(CN1C(=O)C(NC(=O)Nc2ccc(Cl)cc2)N=C(c2ccccc2)c2ccccc21)NCc1ccccc1` (configuration not stated) [N-Benzyl-2-{3-[3-(4-chloro-phenyl)-ureido]-2-oxo-5-phenyl-2,3-dihydro-benzo[e][1,4]diazepin-1-yl}-acetamide], which IC50 is on record?
Answer: 102 nM

Question: With `Cc1cccc(NC(=O)NC2N=C(c3ccccc3)c3ccccc3N(CCOC(=O)CCC(=O)O)C2=O)c1` (configuration not stated) [Succinic acid mono-{2-[2-oxo-5-phenyl-3-(3-m-tolyl-ureido)-2,3-dihydro-benzo[e][1,4]diazepin-1-yl]-ethyl} ester] as the compound, how does the IC50 read?
Answer: 7.2 nM

Question: With `Cc1cccc(NC(=O)NC2N=C(c3ccccc3)c3ccccc3N(CC(=O)O)C2=O)c1` (configuration not stated) [[2-Oxo-5-phenyl-3-(3-m-tolyl-ureido)-2,3-dihydro-benzo[e][1,4]diazepin-1-yl]-acetic acid] as the compound, how does the IC50 read?
Answer: 380 nM

Question: For `CCOC(=O)CN1C(=O)C(NC(=O)c2ccccc2Cl)N=C(c2ccccc2F)c2ccccc21` (configuration not stated) [[3-(2-Chloro-benzoylamino)-5-(2-fluoro-phenyl)-2-oxo-2,3-dihydro-benzo[e][1,4]diazepin-1-yl]-acetic acid ethyl ester], which IC50 is on record?
Answer: 3200 nM

Question: For `CCOC(=O)CN1C(=O)C(NC(=O)N[C@@H](C)c2ccccc2)N=C(c2ccccc2)c2ccccc21` (some centres not stated) [{2-Oxo-5-phenyl-3-[3-(1-phenyl-ethyl)-ureido]-2,3-dihydro-benzo[e][1,4]diazepin-1-yl}-acetic acid ethyl ester], which IC50 is on record?
Answer: > 100 nM

Question: For `CN1C(=O)C(NC(=O)Nc2cccc(CNC(=O)OC(C)(C)C)c2)N=C(c2ccccc2)c2ccccc21` (configuration not stated) [{3-[3-(1-Methyl-2-oxo-5-phenyl-2,3-dihydro-1H-benzo[e][1,4]diazepin-3-yl)-ureido]-benzyl}-carbamic acid tert-butyl ester], which IC50 is on record?
Answer: 170 nM

Question: With `COC(=O)Cc1cccc(NC(=O)NC2N=C(c3ccccc3)c3ccccc3N(C)C2=O)c1` (configuration not stated) [{3-[3-(1-Methyl-2-oxo-5-phenyl-2,3-dihydro-1H-benzo[e][1,4]diazepin-3-yl)-ureido]-phenyl}-acetic acid methyl ester] as the compound, how does the IC50 read?
Answer: 33 nM

Question: With `CN1C(=O)C(NC(=O)Nc2cccc(CC(=O)O)c2)N=C(c2ccccc2)c2ccccc21` (configuration not stated) [{3-[3-(1-Methyl-2-oxo-5-phenyl-2,3-dihydro-1H-benzo[e][1,4]diazepin-3-yl)-ureido]-phenyl}-acetic acid] as the compound, how does the IC50 read?
Answer: 4.9 nM

Question: Which IC50 does the source give for `O=C(Nc1ccc(Cl)cc1)NC1N=C(c2ccccc2)c2ccccc2N(CC(=O)OCc2ccccc2)C1=O` (configuration not stated) [{3-[3-(4-Chloro-phenyl)-ureido]-2-oxo-5-phenyl-2,3-dihydro-benzo[e][1,4]diazepin-1-yl}-acetic acid benzyl ester] here?
Answer: 44 nM

Question: With `O=C(O)CN1C(=O)C(NC(=O)Nc2ccc(Cl)cc2)N=C(c2ccccc2)c2ccccc21` (configuration not stated) [{3-[3-(4-Chloro-phenyl)-ureido]-2-oxo-5-phenyl-2,3-dihydro-benzo[e][1,4]diazepin-1-yl}-acetic acid] as the compound, how does the IC50 read?
Answer: 72 nM
